One data set concerns Kunming mice. The experiment in a line: Normal pressure hypoxia-resistance test in mice. The data set is classed as in vivo. Particulars: 60 mg/Kg intraperitoneal, 0.5 hours before sealing in 250 ml bottles, examples tested as hydrochloride salts. The procedure:
This test was carried out by a common method familiar to those skilled in the art. 32 Kunming mice (16 males vs. 16 females, body weights ranging from 18 to 20 g) were randomly divided into a control group and a administration group (each group having 16 animals), wherein the dosage was 60 mg/Kg mouse and 0.2 ml for each animal. After 0.5 hours of the intraperitoneal injection of test solutions, the mice were placed and sealed in 250 ml wide-mouthed bottles with ground stoppers. The times of death were recorded. Statistical analysis was conducted separately with respect to the blank control group and puerarin group, and P values were calculated.

For data set [1] the following is noted: 568 patients administered with puerarin; cited from earlier work.
For data set [2] the following is noted: cited from earlier work.
The conditions of data set [3]: cited from earlier work. The source holds these as a separate data set.

SMILES strings stand for the structures.

In the case of `CCN(CC)CCCCOc1ccc(-c2coc3c([C@@H]4O[C@H](CO)[C@@H](O)[C@H](O)[C@H]4O)c(O)ccc3c2=O)cc1` [Example 14, 4′-(4-N-diethylaminobutoxy)-7-hydroxy-8-β-D-(1-deoxyglucosyl)isoflavone], the “Time to death” value in the data set on Kunming mice turned out to be 79.1 ± 8 min.

As to `CCN(CC)CCCOc1ccc(-c2coc3c([C@@H]4O[C@H](CO)[C@@H](O)[C@H](O)[C@H]4O)c(O)ccc3c2=O)cc1` [Example 6, 4′-(3-N-diethylaminopropoxy)-7-hydroxy-8-β-D-(1-deoxyglucosyl)-isoflavone], the “Time to death” value with Kunming mice is listed as 73.5 ± 9 min.

As for `CN1CCN(CCCCOc2ccc(-c3coc4c([C@@H]5O[C@H](CO)[C@@H](O)[C@H](O)[C@H]5O)c(O)ccc4c3=O)cc2)CC1` [Example 17, 4′-(4-N-methylpiperazinylbutoxy)-7-hydroxy-8-β-D-(1-deoxyglucosyl)-isoflavone], the “Time to death” value in the data set on Kunming mice came to 59.8 ± 7 min.

Turning to `O=c1c(-c2ccc(O)cc2)coc2c([C@@H]3O[C@H](CO)[C@@H](O)[C@H](O)[C@H]3O)c(O)ccc12` [puerarin, 4′,7-dihydroxy-8-β-D-C-glycosylisoflavone], the “Time to death” value in the data set on Kunming mice stood at 48.3 ± 5 min. Also, the “total incidence rate of febrile” value in data set [1] is listed as 5.81%. Moreover, in data set [2], the oral bioavailability result was “about 30%”. In data set [3] (4.3% PVP aqueous solution), the “solubility of puerarin in 4.3% PVP aqueous solution” value was 1.332 g/100 ml. Besides, the “stability in an aqueous solution” value in data set [3] (relatively high pH value) was “poor stability”. Besides, the “solubility of puerarin in water” value in data set [3] (water) is 0.462 g/100 ml.

In the case of `O=c1c(-c2ccc(OCCCN3CCOCC3)cc2)coc2c([C@@H]3O[C@H](CO)[C@@H](O)[C@H](O)[C@H]3O)c(O)ccc12` [Example 4, 4′-(3-N-morpholinylpropoxy)-7-hydroxy-8-β-D-(1-deoxyglucosyl)isoflavone], the “Time to death” value in the data set on Kunming mice is reported as 75.3 ± 7 min.

For the compound `CCCN(CCC)CCCOc1ccc(-c2coc3c([C@@H]4O[C@H](CO)[C@@H](O)[C@H](O)[C@H]4O)c(O)ccc3c2=O)cc1` [Example 7, 4′-[3-N-di(n-propyl)aminopropoxy]-7-hydroxy-8-β-D-(1-deoxyglucosyl)-isoflavone], the “Time to death” value with Kunming mice is given as 69.8 ± 5 min.

Consider `CCN1CCN(CCCCOc2ccc(-c3coc4c([C@@H]5O[C@H](CO)[C@@H](O)[C@H](O)[C@H]5O)c(O)ccc4c3=O)cc2)CC1` [Example 18, 4′-(4-N-ethylpiperazinylbutoxy)-7-hydroxy-8-β-D-(1-deoxyglucosyl)-isoflavone], for which the “Time to death” value with Kunming mice is given as 75.9 ± 6 min.

The values above are taken from patent publication US7727965B2, “C-glycosylisoflavones having alkylaminoalkoxyl substituent, preparation and use of the same” (Hainan Yangpu New & Special Medicine Co., Ltd., priority 2003, dated 2010).
